Values after ≈ are worked out from the molar mass of the structure shown. Structures can show the parent of a compound that is named as a salt. Where two headings read alike, the source gives them in different places.
Experiments:
A1 receptor = molecular target: T1, A1 receptor (Rattus norvegicus, UniProt P25099); assay: biochemical; settings: for Ki: Schild analysis, A1 receptor mediated inhibition of adenylate cyclase; for Adenylate cyclase A2 /A1: ratio of A2 Ki to A1 Ki
T1 sequence (P25099 1-326): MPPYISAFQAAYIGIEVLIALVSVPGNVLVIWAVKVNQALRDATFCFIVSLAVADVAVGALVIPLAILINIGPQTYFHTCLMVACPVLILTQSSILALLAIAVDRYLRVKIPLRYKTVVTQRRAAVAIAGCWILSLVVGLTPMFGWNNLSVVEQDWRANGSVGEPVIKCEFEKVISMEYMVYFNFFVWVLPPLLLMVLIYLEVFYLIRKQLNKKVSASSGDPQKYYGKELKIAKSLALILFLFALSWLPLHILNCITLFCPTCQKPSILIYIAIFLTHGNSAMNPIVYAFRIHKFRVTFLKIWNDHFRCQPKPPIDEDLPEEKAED
Method: The A1 receptor mediated inhibition of adenylate cyclase activity was measured by a modification of the procedure of Londos et al. (Proc. Natl. Acad. Sci. 75: 5362, 1978). Membrane protein (10-15 μg) was added to a reaction mixture containing a final concentration of 25 mM Tris-HCl (pH 7.4), 2 mM MgCl2 50 μM ATP, 50 μM cAMP, 1 mM dithiothreitol, 0.25 mg/ml BSA, 1 IU/ml adenosine deaminase, 5 mM creatine phosphate, 0.2 mg/ml creatine phosphokinase, 80 mM NaCl, [α^32 P]ATP (1.5 c 10^-6 DPM) and 100M GTP in 100 μl final volume. Incubations were carried out for 10 minutes at 24° C.
(§1) The Ki values for the test compounds were derived from Schild analysis as described by Tallarida et al. (Life Sciences 25: 637, 1979) in which the progressive shift in the dose response to a standard agonist was assessed using 3 concentrations of the test compound distributed over a 100-fold molar range. All incubations were performed in triplicate.

[1] = tested on: NECA-induced depression of force and rate of an isolated guinea pig heart; assay: NECA Depressed Langendorff Heart; settings: for IC50: guinea pig; for NECA - Depressed Langendorff Heart Force/Rate: ratio of force to rate TC50
Method: NECA Depressed Langendorff Heart. Hearts were rapidly excised from male guinea-pigs and transferred to a beaker containing a Krebs-bicarbonate solution at 5° C. Each heart was gently massaged to clear it of blood and clots, and the surrounding tissue was cut away. The cut aortic stump was secured to a glass cannula for retrograde perfusion of the coronary circulation.
Perfusion was at a constant rate of 5-7 ml/min, produced with a Holter peristaltic pump. […] Alterations in perfusion pressure arising from changes in coronary vascular resistance were recorded on a Gould recorder by means of Gould pressure transducers attached at a sidearm of the aortic cannula. Isometric contractions of the heart were recorded with a Grass transducer attached by a suture via a pulley to a clip on the apex of the ventricles. Rates of contraction were determined by counting heart beats.
Drugs were added directly into the perfusion solutions. Drug concentrations were changed by switching solutions. Cardiac functions were depressed with NECA or adenosine by infusing a solution of one or the other ([…]) into the perfusion solution through an injection port located immediately adjacent to the warming coil. IC50 is defined as the concentration of compound that will cause 50 percent inhibition of the NECA-induced depression of force and rate of an isolated guinea pig heart.

[2] = molecular target: T2, adenosine receptor sites on guinea pig cortical membranes (Cavia porcellus, UniProt P47745); assay: Adenosine Receptor Binding Assay, inhibition of specific [^3 H]-cyclohexyladenosine ([^3 H]CHA) binding; settings: 4 nM [^3 H]CHA, 120 minutes at 23° C.
T2 sequence (P47745 1-326): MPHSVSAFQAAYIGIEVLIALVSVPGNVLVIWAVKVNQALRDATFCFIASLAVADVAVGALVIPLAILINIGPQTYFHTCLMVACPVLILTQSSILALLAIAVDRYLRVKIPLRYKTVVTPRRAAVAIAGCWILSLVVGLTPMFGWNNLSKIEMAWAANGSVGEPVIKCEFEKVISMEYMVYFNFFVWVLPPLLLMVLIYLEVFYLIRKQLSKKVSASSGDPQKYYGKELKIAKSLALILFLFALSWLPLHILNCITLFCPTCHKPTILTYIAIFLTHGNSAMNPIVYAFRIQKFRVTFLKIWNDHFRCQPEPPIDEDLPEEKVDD
Method: Adenosine Receptor Binding Assay. The potency of 8-arylxanthine compounds to inhibit the specific binding of [^3 H]-cyclohexyladenosine ([^3 H]CHA) to adenosine receptor sites on guinea pig cortical membranes was examined using standard in vitro ligand binding techniques. […] Briefly, guinea pig cortical tissue was homogenized in ice cold 50 mM Tris HCl buffer (pH 7.4) using a Brinkman Polytron. The homogenate was centrifuged at 48,000 x g for 10 minutes and the resulting tissue pellet was suspended in fresh cold buffer to yield a tissue concentration of 10 mg (wet weight)/ml. This tissue suspension was incubated for 30 minutes at 37° C. in the presence of adenosine deaminase (0.2 I.U./mg tissue). Following this incubation, the tissue suspension was centrifuged as before and the resulting pellet was suspended in fresh buffer at a concentration of 7-10 mg tissue (wet weight)/ml. Inhibition of the specific binding of [^3 H]CHA (New England Nuclear; 25 Ci/mmol) was examined in a total volume of 2 ml containing 50 mM Tris HCl, 7-10 mg of cortical tissue (1 ml of tissue suspension), 4 nM [^3 H]CHA and various concentrations of the test compounds. Nonspecific binding was determined in the presence of 10^-5 M 2-chloroadenosine. The binding reaction was carried out for 120 minutes at 23° C. and was terminated by vacuum filtration over Whatman GF/B filters using a Brandel M-48R Cell Harvester. The filters were washed 3 times with 3 ml of cold buffer and placed in scintillation vials in a Beckman LS 3801 scintillation counter. Dose-inhibition curves were generated with 10-12 concentrations of the test compound using triplicate incubations. The inhibition constants (Ki value) were calculated using EBDA, a log-logit iterative curve fitting program (McPhearson, Comput. Prog. Biomed. 107:220, 1983).

[3] = Solubility (mg/ml) 37° C.
A2 receptor = A2 receptor (Rattus norvegicus, UniProt P30543); assay: biochemical; settings: Schild analysis; A2 receptor mediated stimulation of adenylate cyclase, PC12 membranes
A2 receptor, sequence (P30543 whole entry): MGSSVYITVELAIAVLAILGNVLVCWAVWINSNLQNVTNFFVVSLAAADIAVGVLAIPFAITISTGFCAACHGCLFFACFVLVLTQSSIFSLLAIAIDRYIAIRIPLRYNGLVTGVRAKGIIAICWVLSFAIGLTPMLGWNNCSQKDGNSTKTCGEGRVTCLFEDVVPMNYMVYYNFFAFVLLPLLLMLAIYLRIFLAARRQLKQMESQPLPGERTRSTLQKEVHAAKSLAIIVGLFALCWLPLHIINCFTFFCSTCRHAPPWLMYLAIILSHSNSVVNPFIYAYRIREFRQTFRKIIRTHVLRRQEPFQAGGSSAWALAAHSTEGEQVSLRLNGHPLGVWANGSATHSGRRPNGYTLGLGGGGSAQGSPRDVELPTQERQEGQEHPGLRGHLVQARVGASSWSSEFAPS
Method: The A2 receptor mediated stimulation of adenylate cyclase was measured by a modification of the procedure of Premont et al. (Molec. Pharmacol. 16: 790, 1979). Typically, pheochromocytoma cell (PC12) membranes were thawed and added to a reaction mixture containing a final concentration of 25 mM Tris-HCl, pH 7.1, 1 mM MgCl2, 50 μM ATP, 50 μM cAMP, 0.1 mM papaverine, 0.4 IU/ml adenosine deaminase, 5 mM creatine phosphate, 0.2 mg/ml creatine phosphokinase, 10 μg membrane protein, [α^32 P]ATP (μ10^-6 DPM), 5 μM GTP, and various concentrations of adenosine agonists and/or antagonists in a final volume of 100 μl. The reaction was initiated with the addition of tissue and incubated 30° C. for 20 minutes. Reactions were terminated with 100 μl of 40 mM ATP, 1.4 mM cAMP and 2% SDS. ^32 P-cAMP isolated according to the procedure to the procedure of Salomon et al. (Adv. Cyclic Nucleotide Res. 10: 35, 1979).
as §1

adenosine (A1) receptor = settings: cited from earlier work
animals = settings: in vivo; cited from earlier work
adenosine receptors = settings: Daly et al. J. Med. Chem. 1985; cited from earlier work
guinea pig thymocytes = settings: less potent than 8-phenyltheophylline; NECA-induced cyclic AMP accumulation; cited from earlier work
[4] = 50 percent inhibition of the NECA-induced depression of force, read-out: NECA - Depressed Langendorff Heart TC50 Force
[5] = 50 percent inhibition of the NECA-induced depression of rate, read-out: NECA - Depressed Langendorff Heart TC50 Rate

| Ki (A1 receptor) [nM] | Adenylate cyclase A2 /A1 (A1 receptor) | Ki [2] [nM] | solubility [3] [µg/mL] | Ki (A2 receptor) [nM] | SMILES | IC50 [1, 4] [nM] | IC50 [1, 5] [nM] | NECA - Depressed Langendorff Heart Force/Rate [1] | selectivity toward A1 adenosine receptor (adenosine (A1) receptor) | force and rate properties / effect on force and rate of contraction (in words) ([1]; NECA depressed Langendorff heart, guinea pigs) | overt activity in animals (animals) | selectivity after introduction of the sulfonyl group (adenosine receptors) | potency relative to 8-phenyltheophylline (guinea pig thymocytes) [fold] |
| --- | --- | --- | --- | --- | --- | --- | --- | --- | --- | --- | --- | --- | --- |
| 88.7 | 7 | 169 | 25000 | 664 | CCCn1c(=O)c2[nH]c(-c3ccc(O)c(CN(C)C)c3)nc2n(CCC)c1=O [Pr Pr CH2 NMe2 OH, 1,3-Dipropyl-8-(3-N,N-dimethylaminomethyl-4hydroxyphenyl)xanthine hydrochloride hydrate] | 1490 | 2060 | 0.72 |  |  |  |  |  |
| 26.9 | 20 | 423 |  | 529 | CCCn1c(=O)c2[nH]c(-c3ccc(C(=O)OCC)cc3)nc2n(CCC)c1=O [Pr Pr H COOEt, 1,3-Dipropyl-8-(4-carboethoxyphenyl)xanthine] | 4780 | 7840 | 0.61 |  |  |  |  |  |
|  |  | 1840 |  |  | CNC(=N)c1ccc(-c2nc3c([nH]2)c(=O)n(C)c(=O)n3C)cc1 [Me Me H C(NH)NHMe, 1,3-Dimethyl-8-(4-N-methylamidinophenyl)xanthine hydrochloride hydrate] | 3640 | 18400 | 0.20 |  |  |  |  |  |
| 12.6 | 33.4 | 45 | < 0.4 | 421 | CCCn1c(=O)c2[nH]c(-c3ccc(Cl)cc3N)nc2n(CCC)c1=O [PACPX, reference compound] | 1110 | 180 | 6.17 | selective toward A1 --adenosine receptor | unfavorable force and rate properties | little overt activity in animals |  |  |
|  |  | 86 | 80 (≈ 201 µM) | 131 | CCCn1c(=O)c2[nH]c(-c3ccc(NC(=O)N(C)C)cc3)nc2n(CCC)c1=O [Pr Pr H NHC(=O)NMe2, 1,3-Dipropyl-8-(4-N,N-dimethylureidophenyl) xanthine] | 360 | 980 | 0.61 |  |  |  |  |  |
| 12 | 11.7 | 129 | 1000 | 140 | CCCn1c(=O)c2[nH]c(-c3ccc(C(=N)NC)cc3)nc2n(CCC)c1=O [Pr Pr H C(NH)NHMe, 1,3-Dipropyl-8-(4-N-methylamidinophenyl)xanthine hydrochloride hydrate] | 1470 | 3770 | 0.39 |  |  |  |  |  |
|  |  |  |  |  | Cn1c(=O)c2[nH]c(-c3ccc(S(=O)(=O)O)cc3)nc2n(C)c1=O [(II), 8-[4-sulfophenyl]-theophylline] |  |  |  |  |  |  | decrease in selectivity | 3 |
| 9.7 | 31.9 | 81 | 3000 | 309 | CCCn1c(=O)c2[nH]c(-c3ccc(C(=N)N)cc3)nc2n(CCC)c1=O [Pr Pr H C(NH)NH2, 1,3-Dipropyl-8-(4-amidinophenyl)xanthine hydrochloride hemi-hydrate] | 1400 | 7030 | 0.20 |  |  |  |  |  |
|  |  |  | 250 (≈ 621 µM) |  | CCCn1c(=O)c2[nH]c(-c3cccc(OCC(O)CO)c3)nc2n(CCC)c1=O (stereo not shown) [Pr Pr OCH2 (CH2 OH)2 H, 1,3-Dipropyl-8-[3-(2,3-dihydroxypropyloxy)phenyl]xanthine] | 490 | 1040 | 0.47 |  |  |  |  |  |

| SMILES | Ki (A1 receptor) [nM] | Adenylate cyclase A2 /A1 (A1 receptor) | Ki [2] [nM] | solubility [3] [µg/mL] | Ki (A2 receptor) [nM] | IC50 [1, 4] [nM] | IC50 [1, 5] [nM] | NECA - Depressed Langendorff Heart Force/Rate [1] | selectivity toward A1 adenosine receptor (adenosine (A1) receptor) | force and rate properties / effect on force and rate of contraction (in words) ([1]; NECA depressed Langendorff heart, guinea pigs) | overt activity in animals (animals) | selectivity after introduction of the sulfonyl group (adenosine receptors) | potency relative to 8-phenyltheophylline (guinea pig thymocytes) [fold] |
| --- | --- | --- | --- | --- | --- | --- | --- | --- | --- | --- | --- | --- | --- |
| Cl.Cn1c(=O)c2[nH]c(-c3ccc(C(=N)N)cc3)nc2n(C)c1=O.O [Me Me H C(NH)NH2, 1,3-Dimethyl-8-(4-amidinophenyl)xanthine hydrochloride hydrate] | 244 | 2.1 | 1140 |  | 523 | 2010 | 15600 | 0.13 |  |  |  |  |  |
| CCCn1c(=O)c2[nH]c(-c3ccc(CN)cc3)nc2n(CCC)c1=O.Cl.O [Pr Pr H CH2 NH2, 1,3-Dipropyl-8-(4-aminomethylphenyl)xanthine hydrochloride hydrate] | 16.3 | 26 | 66.8 | 500 | 432 | 570 | 2000 | 0.28 |  |  |  |  |  |

Reference: patent US4783530A, “8-arylxanthines” (priority 1987, dated 1988)
